This is an account of results in patent US12570655B2, “Cysteine covalent modifiers of AKT1 and uses thereof” (Terremoto Biosciences, Inc., priority 2023, dated 2026).

Read-outs that look alike come from different tables or passages of the source.

The test system of test [1] is LAPC4 prostate cancer cells. As to the kind of experiment: Antiproliferative effects in LAPC4 cells (CellTiter Glo). The class given is cell-based. The note with it: LAPC4 cells (AKT1 E17K allele), read-out: LAPC4 proliferation IC50. The gist of the method: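 Luminescent ATP read-out (CellTiter Glo) after 72 h compound exposure; 1,000 cells/well in IMDM + 12% FBS + 1% P/S. IC50 by Hill equation fit of luminescence vs. log(inhibitor).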

Another test has as its target T1, AKT E17K (Homo sapiens, UniProt P31749, DEL120-128/E133D/E17K/G130S/INS132HT/S129A).
T1 construct: Akt1(DrLink)-WT/E17K were gene synthesized and cloned by Gibson assembly into the pFastBac vector; His8 followed by TEV site (MSHHHHHHHHGSENLYFQS) (N); DrLink (replaced PH-kinase interdomain linker, part of the construct's name); made in house; host or cells: Akt1(DrLink): baculovirus/Sf9; NB41: E. coli Rosetta 2(DE3)pLysS
As to the kind of experiment: Compound 13/AKT E17K co-crystallization complex, crystal structure. The note with it: FIG. 2C. The class given is binding.

Test [2] addresses T2, AKT1 E17K (Homo sapiens, UniProt P31749, DEL120-128/E133D/E17K/G130S/INS132HT/S129A).
T2 construct: Akt1(DrLink)-WT/E17K were gene synthesized and cloned by Gibson assembly into the pFastBac vector; His8 followed by TEV site (MSHHHHHHHHGSENLYFQS) (N); DrLink (replaced PH-kinase interdomain linker, part of the construct's name); made in house; host or cells: Akt1(DrLink): baculovirus/Sf9; NB41: E. coli Rosetta 2(DE3)pLysS
As to the kind of experiment: Co-crystallization showing covalent complex formation with AKT1 E17K. The settings on record: AKT1(DrLink)-E17K-NB41 complex, electron density. The protocol:
(§1) Akt1(DrLink)-NB41 Complex Formation
(§2) NB41 was added to AKT(DrLink)-WT/E17K using a 1.2:1 molar ratio and incubated for 10 minutes at 4° C. Final concentration of 10 mM EDTA was then added to this complex. The complex was purified by gel filtration on Superdex 200 (10/300 GL) column (gel filtration buffer: 20 mM HEPES pH 8.0, 20 mM NaCl, 5 mM DTT). The resulting complex was then concentrated to […] and flash-frozen in liquid nitrogen and stored at −80° C. This complex was then used for crystal formation.
(§3) Crystallization, Data Collection and Structure Determination
(§4) 6 mg/mL AKT1 WT or E17K DrLink-NB41 complex is incubated with 1 mM TMB Compound 13 on ice for 2 hours prior to crystallization trials. Crystals were obtained by the vapor diffusion technique at 20′C after mixing an equal volume of the complex with the well solution containing 17-23% PEG3350, 200 mM Li2SO4, 100 mM Bis Tris Propane pH 6.5-9.0, 10% ethylene glycol. Crystals grew within 3 days. Crystals were cryo protected in mother liquor supplemented with […] and flash cooled in liquid nitrogen for storage and data collection. All diffraction datasets were collected and processed by Helix Biostructures at ESRF beamline TD30B on Sep. 1, 2023. […] The initial structures were determined through molecular replacement with Phaser in CCP4 suite with the structure […] 7APJ as a search model. […]

The target of test [3] is T3, AKT1 WT (Homo sapiens, UniProt P31749, DEL120-128/E133D/G130S/INS132HT/S129A).
T3 construct: Akt1(DrLink)-WT/E17K were gene synthesized and cloned by Gibson assembly into the pFastBac vector; His8 followed by TEV site (MSHHHHHHHHGSENLYFQS) (N); DrLink (replaced PH-kinase interdomain linker, part of the construct's name); made in house; host or cells: Akt1(DrLink): baculovirus/Sf9; NB41: E. coli Rosetta 2(DE3)pLysS
As to the kind of experiment: Compound 13/AKT1 WT co-crystallization complex, crystal structure. The class given is binding. The note with it: FIG. 1C.
Target sequence in this assay (P31749 with tags, fused parts or gaps DEL120-128/S129A/G130S/INS132HT/E133D): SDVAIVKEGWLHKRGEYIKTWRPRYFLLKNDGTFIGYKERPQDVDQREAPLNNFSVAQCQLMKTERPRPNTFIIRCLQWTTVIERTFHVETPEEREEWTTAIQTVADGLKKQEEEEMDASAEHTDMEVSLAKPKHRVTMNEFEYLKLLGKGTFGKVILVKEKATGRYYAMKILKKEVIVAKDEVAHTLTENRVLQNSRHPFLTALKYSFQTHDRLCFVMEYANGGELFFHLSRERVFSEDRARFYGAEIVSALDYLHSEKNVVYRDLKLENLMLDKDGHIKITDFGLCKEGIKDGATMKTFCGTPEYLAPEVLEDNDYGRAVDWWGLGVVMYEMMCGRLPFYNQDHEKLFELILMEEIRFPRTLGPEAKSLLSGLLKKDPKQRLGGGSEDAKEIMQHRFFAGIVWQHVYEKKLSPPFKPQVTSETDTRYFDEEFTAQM

In the next test the target is T4, AKT2 (Homo sapiens, UniProt P31751).
T4 construct: expressed in transfected cells; host or cells: HEK293
T4 sequence (P31751 whole entry): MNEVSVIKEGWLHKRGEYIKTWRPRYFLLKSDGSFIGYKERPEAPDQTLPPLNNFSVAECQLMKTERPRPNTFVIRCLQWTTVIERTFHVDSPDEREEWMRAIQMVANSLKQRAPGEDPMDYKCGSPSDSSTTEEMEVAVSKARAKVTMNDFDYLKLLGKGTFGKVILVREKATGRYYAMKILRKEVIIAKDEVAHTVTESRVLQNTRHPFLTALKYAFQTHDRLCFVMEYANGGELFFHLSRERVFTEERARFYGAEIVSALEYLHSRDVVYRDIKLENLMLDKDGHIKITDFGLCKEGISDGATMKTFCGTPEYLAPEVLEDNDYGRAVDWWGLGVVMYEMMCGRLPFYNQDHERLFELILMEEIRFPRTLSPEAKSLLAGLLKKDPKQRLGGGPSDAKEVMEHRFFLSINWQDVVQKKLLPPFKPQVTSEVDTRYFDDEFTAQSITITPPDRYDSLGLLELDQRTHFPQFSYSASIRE
Description: Live cell AKT2 target engagement by NanoBRET competitive probe displacement. The class given is cell-based. The settings on record: HEK293 cells transfected with kinase-NanoLuciferase fusion, 2 h at 37° C. The gist of the method: (§5)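 NanoLuc-kinase fusions, HEK293, transfected overnight; compound serial dilution + ATP-competitive fluorescent tracer at ~EC50; 2 h, 37 °C. Read 460/600 nm with extracellular NanoLuc inhibitor; BRET = E600/E460; IC50 by Hill fit.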

Test [4] has as its target T3, AKT1 WT. As to the kind of experiment: Co-crystallization showing covalent complex formation with AKT1 WT. The settings on record: AKT1(DrLink)-WT-NB41 complex, electron density. As for the experimental part:
as §1, §2, §3, §4
Target sequence in this assay (P31749 with tags, fused parts or gaps DEL120-128/S129A/G130S/INS132HT/E133D): as the sequence (P31749 with tags, fused parts or gaps DEL120-128/S129A/G130S/INS132HT/E133D) above
Target sequence in this assay (as listed by the source partner): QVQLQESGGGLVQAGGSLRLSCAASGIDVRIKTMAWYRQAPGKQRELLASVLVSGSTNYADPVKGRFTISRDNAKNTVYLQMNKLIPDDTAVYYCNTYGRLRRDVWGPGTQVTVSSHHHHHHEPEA

Test [5] has as its target T5, AKT1 WT (Homo sapiens, UniProt P31749).
T5 construct: expressed in transfected cells; host or cells: HEK293
Description: Live cell AKT1 WT target engagement by NanoBRET competitive probe displacement. The class given is cell-based. The settings on record: HEK293 cells transfected with kinase-NanoLuciferase fusion, 2 h at 37° C. The gist of the method:
as §5
For orientation: BRET reads energy transfer from a luciferase to a nearby fluorophore.

The target in test [6] is T6, AKT1 E17K (Homo sapiens, UniProt P31749, E17K).
T6 construct: expressed in transfected cells; host or cells: HEK293
T6 sequence (P31749 whole entry E17K): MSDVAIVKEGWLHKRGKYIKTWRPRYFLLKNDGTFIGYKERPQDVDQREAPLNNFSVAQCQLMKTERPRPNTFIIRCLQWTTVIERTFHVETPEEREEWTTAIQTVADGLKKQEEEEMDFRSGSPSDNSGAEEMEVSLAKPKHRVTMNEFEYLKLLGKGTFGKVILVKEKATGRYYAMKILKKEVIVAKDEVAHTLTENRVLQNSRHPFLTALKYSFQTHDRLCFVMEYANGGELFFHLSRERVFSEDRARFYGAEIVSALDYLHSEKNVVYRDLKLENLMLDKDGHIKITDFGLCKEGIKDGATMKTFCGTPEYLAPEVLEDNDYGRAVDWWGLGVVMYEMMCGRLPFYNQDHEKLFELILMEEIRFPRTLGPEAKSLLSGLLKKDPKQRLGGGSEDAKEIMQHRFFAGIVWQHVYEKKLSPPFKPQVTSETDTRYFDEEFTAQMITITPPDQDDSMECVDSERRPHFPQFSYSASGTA
As to the kind of experiment: Live cell AKT1 E17K target engagement by NanoBRET competitive probe displacement. Format: cell-based. The note with it: HEK293 cells transfected with kinase-NanoLuciferase fusion, 2 h at 37° C. The gist of the method: as §5

T5 sequence (P31749 whole entry): as the sequence (P31749 whole entry E17K) above, with K17E counted along it
T2 sequence (P31749 with tags, fused parts or gaps E17K/DEL120-128/S129A/G130S/INS132HT/E133D): as the sequence (P31749 with tags, fused parts or gaps DEL120-128/S129A/G130S/INS132HT/E133D) above, with E16K counted along it
T1 sequence (P31749 with tags, fused parts or gaps E17K/DEL120-128/S129A/G130S/INS132HT/E133D): as the sequence (P31749 with tags, fused parts or gaps DEL120-128/S129A/G130S/INS132HT/E133D) above, with E16K counted along it
T1 sequence (as listed by the source partner): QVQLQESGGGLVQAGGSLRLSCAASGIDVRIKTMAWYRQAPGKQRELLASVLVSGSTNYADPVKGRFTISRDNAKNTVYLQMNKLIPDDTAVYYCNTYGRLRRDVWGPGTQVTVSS

Regarding `C=CC(=O)N1CCC(N[C@H]2CCc3cc(-n4c(-c5cccnc5N)nc5ccc(-n6cccn6)nc54)ccc32)CC1` [Example 13, 1-(4-{[(1S)-5-[2-(2-aminopyridin-3-yl)-5-(pyrazol-1-yl)imidazo[4,5-b]pyridin-3-yl]-2,3-dihydro-1H-inden-1-yl]amino}piperidin-1-yl)prop-2-en-1-one], the IC50 in test [1] (Homo sapiens, LAPC4, 72 h) turned out to be 144 nM; on AKT2, 224 nM; at AKT1 WT [5], 17 nM; on AKT1 E17K [6], 56.1 nM. The “interaction seen in the co-crystal structure (site of covalent attachment)” value at AKT E17K was “covalent bond between C296 cysteine residue of AKT E17K and Compound 13”; on AKT1 WT [3], “covalent bond between C296 cysteine residue of AKT1 WT and Compound 13”. The “covalent bond formation in co-crystal structure” value on AKT1 E17K [2] and at AKT1 WT [4] was “covalent bond formation with C296” each time.

As for `C=C(Cl)C(=O)Nc1ccccc1C(=O)N[C@H]1CCc2cc(-n3c(-c4cccnc4N)nc4ccc(-n5cccn5)nc43)ccc21` [Example 38, (S)-N-(5-(2-(2-aminopyridin-3-yl)-5-(1H-pyrazol-1-yl)-3H-imidazo[4,5-b]pyridin-3-yl)-2,3-dihydro-1H-inden-1-yl)-2-(2-chloroacrylamido)benzamide], the IC50 in test [1] (Homo sapiens, LAPC4, 72 h) is above 10000 nM; at AKT2, 2090 nM; on AKT1 WT [5] it was 204 nM; at AKT1 E17K [6], 881 nM.

Turning to `C=CC(=O)N1CCC(N[C@H]2CCc3cc(-n4c(-c5cccnc5N)nc5ccc(N6CCC(F)CC6)nc54)ccc32)CC1` [Example 238, 1-(4-{[(1S)-5-[2-(2-aminopyridin-3-yl)-5-(4-fluoropiperidin-1-yl)imidazo[4,5-b]pyridin-3-yl]-2,3-dihydro-1H-inden-1-yl]amino}piperidin-1-yl)prop-2-en-1-one], the IC50 was 667 nM in test [1] (Homo sapiens, LAPC4, 72 h); 666 nM on AKT2; 679 nM on AKT1 WT [5]; 37.2 nM on AKT1 E17K [6].

For `C=CC(=O)N1C[C@H]2C[C@@H](C1)C2N[C@H]1CCc2cc(-n3c(-c4cccnc4N)nc4ccc(-n5cccn5)nc43)ccc21` (single isomer, unassigned) [Example 60, 1-((1R,5S,6*)-6-(((S)-5-(2-(2-aminopyridin-3-yl)-5-(1H-pyrazol-1-yl)-3H-imidazo[4,5-b]pyridin-3-yl)-2,3-dihydro-1H-inden-1-yl)amino)-3-azabicyclo[3.1.1]heptan-3-yl)prop-2-en-1-one], the IC50 was 1380 nM in test [1] (72 h), 1680 nM at AKT2, above 1000 nM at AKT1 WT [5] and 406 nM on AKT1 E17K [6].
